Values after ≈ are worked out from the molar mass of the structure shown. Structures can show the parent of a compound that is named as a salt.
Assays:
[1] = test system: K. pneumoniae 1-220S; test: In vitro antibacterial activity, MIC (standard strain); format: cell-based; settings: Klebsiella pneumoniae, 1220S; K. pneumoniae 1-220S; 10^6 cells/ml; standard strain; read-out: MIC
[2] = test system: S. pyogenes 3102; test: In vitro antibacterial activity, MIC (clinical isolates); format: cell-based; settings: Streptococcus pyogenes; S. pyogenes 3102; 10^6 cells/ml; clinical isolate; read-out: MIC
[3] = test system: P. aeruginosa IFO 12689; test: In vitro antibacterial activity, MIC (standard strain); format: cell-based, Pseudomonas aeruginosa; settings: Pseudomonas aeruginosa, IFO12689; P. aeruginosa IFO 12689; 10^6 cells/ml; standard strain; read-out: MIC
[4] = test system: Alcaligenes faecalis 0104002; test: as above; format: cell-based; settings: Alcaligenes faecalis, 0104002, Alcaligenes faecalis 0104002; 10^6 cells/ml; standard strain; read-out: MIC
[5] = test system: Yersinia enterocolitica IID 981; test: as above; format: cell-based; settings: IID981; Yersinia enterocolitica IID 981; 10^6 cells/ml; standard strain; read-out: MIC
[6] = test system: S. pneumoniae 3227; test: In vitro antibacterial activity, MIC (clinical isolates); format: cell-based; settings: Streptococcus pneumoniae; S. pneumoniae 3227; 10^6 cells/ml; clinical isolate; read-out: MIC
[7] = test system: S. pneumoniae 2054; test: as above; format: cell-based; settings: Streptococcus pneumoniae; S. pneumoniae 2054; 10^6 cells/ml; clinical isolate; read-out: MIC
[8] = test system: S. agalactiae 4368; test: as above; format: cell-based; settings: Streptococcus agalactiae; S. agalactiae 4368; 10^6 cells/ml; clinical isolate; read-out: MIC
[9] = test system: E. coli ATCC 10536; test: In vitro antibacterial activity, MIC (standard strain); format: cell-based; settings: Escherichia coli, ATCC10536; E. coli ATCC 10536; 10^6 cells/ml; standard strain; read-out: MIC
[10] = test system: S. agalactiae 4049; test: In vitro antibacterial activity, MIC (clinical isolates); format: cell-based; settings: Streptococcus agalactiae; S. agalactiae 4049; 10^6 cells/ml; clinical isolate; read-out: MIC
[11] = test system: Acinetobacter anitratus IID 876; test: In vitro antibacterial activity, MIC (standard strain); format: cell-based; settings: Acinetobacter calcoaceticus, IID876, Acinetobacter anitratus IID 876; 10^6 cells/ml; standard strain; read-out: MIC
[12] = test system: Staphylococcus aureus 209 P; test: as above; format: cell-based; settings: Staphylococcus aureus 209 P; 10^6 cells/ml; standard strain; read-out: MIC
[13] = test system: B. fragilis 0558; test: as above; format: cell-based, Bacteroides fragilis; settings: Bacteroides fragilis, 0558, B. fragilis 0558; 10^6 cells/ml; standard strain; read-out: MIC
[14] = test system: Proteus vulgaris IFO 3167; test: as above; format: cell-based; settings: IFO3167; Proteus vulgaris IFO 3167; 10^6 cells/ml; standard strain; read-out: MIC
[15] = test system: S. agalactiae 4342; test: In vitro antibacterial activity, MIC (clinical isolates); format: cell-based; settings: Streptococcus agalactiae; S. agalactiae 4342; 10^6 cells/ml; clinical isolate; read-out: MIC
[16] = test system: S. pneumoniae 2950; test: as above; format: cell-based; settings: Streptococcus pneumoniae; S. pneumoniae 2950; 10^6 cells/ml; clinical isolate; read-out: MIC
[17] = test system: S. pyogenes IID 692; test: In vitro antibacterial activity, MIC (standard strain); format: cell-based; settings: Streptococcus pyogenes, IID692; S. pyogenes IID 692; 10^6 cells/ml; standard strain; read-out: MIC
[18] = test system: S. marcescens GN 7577; test: as above; format: cell-based; settings: Serratia marcescens, GN7577; S. marcescens GN 7577; 10^6 cells/ml; standard strain; read-out: MIC
[19] = test system: E. coli ML 4707; test: as above; format: cell-based; settings: Escherichia coli, ML4707; E. coli ML 4707; 10^6 cells/ml; standard strain; read-out: MIC
[20] = test system: S. agalactiae 4470; test: In vitro antibacterial activity, MIC (clinical isolates); format: cell-based; settings: Streptococcus agalactiae; S. agalactiae 4470; 10^6 cells/ml; clinical isolate; read-out: MIC
[21] = test system: Streptococcus pyogenes S-8; test: In vitro antibacterial activity, MIC (standard strain); format: cell-based; settings: S8; Streptococcus pyogenes S-8; 10^6 cells/ml; standard strain; read-out: MIC
[22] = test system: Citrobacter freundii IID 976; test: as above; format: cell-based; settings: IID976; Citrobacter freundii IID 976; 10^6 cells/ml; standard strain; read-out: MIC
[23] = test system: P. mirabilis IID 994; test: as above; format: cell-based; settings: Proteus mirabilis, IID994; P. mirabilis IID 994; 10^6 cells/ml; standard strain; read-out: MIC
[24] = test system: S. faecalis 402; test: In vitro antibacterial activity, MIC (clinical isolates); format: cell-based; settings: Enterococcus faecalis; S. faecalis 402; 10^6 cells/ml; clinical isolate; read-out: MIC
[25] = test system: Morganella morganii IID 602; test: In vitro antibacterial activity, MIC (standard strain); format: cell-based; settings: IID602; Morganella morganii IID 602; 10^6 cells/ml; standard strain; read-out: MIC
[26] = test system: S. pyogenes 3130; test: In vitro antibacterial activity, MIC (clinical isolates); format: cell-based; settings: Streptococcus pyogenes, read-out: MIC
[27] = test system: Clostridium perfringens KYA 13123; test: microbe, parasite or virus in culture; format: cell-based; settings: KYA13123
[28] = test system: S. pneumoniae 15; test: In vitro antibacterial activity, MIC (clinical isolates); format: cell-based; settings: Streptococcus pneumoniae; S. pneumoniae 15; 10^6 cells/ml; clinical isolate; read-out: MIC
[29] = test system: Escherichia coli NIHJ JC-2; test: In vitro antibacterial activity, MIC (standard strain); format: cell-based; settings: Escherichia coli, NIHJJC2, Escherichia coli NIHJ JC-2; 10^6 cells/ml; standard strain; read-out: MIC
[30] = test system: S. pyogenes 4340; test: In vitro antibacterial activity, MIC (clinical isolates); format: cell-based; settings: Streptococcus pyogenes; S. pyogenes 4340; 10^6 cells/ml; clinical isolate; read-out: MIC
[31] = test system: Serratia marcescens IID 618; test: In vitro antibacterial activity, MIC (standard strain); format: cell-based; settings: Serratia marcescens, IID618, Serratia marcescens IID 618; 10^6 cells/ml; standard strain; read-out: MIC

Row | Structure (SMILES) | MIC [1] [µg/mL] | MIC [2] [µg/mL] | MIC [3] [µg/mL] | MIC [4] [µg/mL] | MIC [5] [µg/mL] | MIC [6] [µg/mL] | MIC [7] [µg/mL] | MIC [8] [µg/mL] | MIC [9] [µg/mL] | MIC [10] [µg/mL] | MIC [11] [µg/mL] | MIC [12] [µg/mL] | MIC [13] [µg/mL] | MIC [14] [µg/mL] | MIC [15] [µg/mL] | MIC [16] [µg/mL] | MIC [17] [µg/mL] | MIC [18] [µg/mL] | MIC [19] [µg/mL] | MIC [20] [µg/mL] | other results
1 | CCNCC1CCN(c2c(F)cc3c(=O)c(C(=O)O)cn(CC)c3c2F)C1 (stereo not drawn) [Ref.1, 1-Ethyl-7-(3-ethylaminomethyl-1-pyrrolidinyl)-6,8-difluoro-1,4-dihydro-4-oxo-3-quinolinecarboxylic acid, reference compound] | 0.39 (≈ 1.03 µM) | 0.2 (≈ 0.527 µM) | 6.25 (≈ 16.5 µM) | 12.5 (≈ 32.9 µM) | 0.39 (≈ 1.03 µM) | 0.39 (≈ 1.03 µM) | 0.39 (≈ 1.03 µM) | 0.2 (≈ 0.527 µM) | 0.1 (≈ 0.264 µM) | 0.39 (≈ 1.03 µM) | 0.78 (≈ 2.06 µM) | 0.05 (≈ 0.132 µM) | 6.25 (≈ 16.5 µM) | 0.05 (≈ 0.132 µM) | 0.39 (≈ 1.03 µM) | 0.39 (≈ 1.03 µM) | 0.39 (≈ 1.03 µM) | 6.25 (≈ 16.5 µM) | 0.1 (≈ 0.264 µM) | 0.39 (≈ 1.03 µM) | MIC [21]: 0.2 µg/mL (≈ 0.527 µM); MIC [22]: 0.2 µg/mL (≈ 0.527 µM); MIC [23]: 0.2 µg/mL (≈ 0.527 µM); MIC [24]: 0.78 µg/mL (≈ 2.06 µM); MIC [25]: 0.78 µg/mL (≈ 2.06 µM); MIC [26]: 0.2 µg/mL (≈ 0.527 µM); MIC [27]: 1.56 µg/mL (≈ 4.11 µM); MIC [28]: 0.2 µg/mL (≈ 0.527 µM); MIC [29]: 0.1 µg/mL (≈ 0.264 µM); MIC [30]: 0.2 µg/mL (≈ 0.527 µM); MIC [31]: 0.39 µg/mL (≈ 1.03 µM)
2 | CC(C)NCC1CCN(c2c(F)cc3c(=O)c(C(=O)O)cn(C4CC4)c3c2F)C1.Cl (stereo not drawn) [Example 11, 1-Cyclopropyl-6,8-difluoro-1,4-dihydro-7-(3-isopropylaminomethyl-1-pyrrolidinyl)-4-oxo-3-quinolinecarboxylic acid hydrochloride] | 0.2 | 0.2 | 3.13 | 1.56 | 0.2 | 0.39 | 0.2 | 0.2 | 0.05 | 0.39 | 0.1 | 0.05 | 0.78 | 0.05 | 0.2 | 0.2 | 0.2 | 3.13 | 0.05 | 0.2 | MIC [21]: 0.2 µg/mL; MIC [22]: 0.1 µg/mL; MIC [23]: 0.1 µg/mL; MIC [24]: 0.39 µg/mL; MIC [25]: 0.39 µg/mL; MIC [26]: 0.2 µg/mL; MIC [27]: 0.2 µg/mL; MIC [28]: 0.2 µg/mL; MIC [29]: 0.05 µg/mL; MIC [30]: 0.2 µg/mL; MIC [31]: 0.39 µg/mL
3 | NCC1CCN(c2c(F)cc3c(=O)c(C(=O)O)cn(C4CC4)c3c2F)C1 (stereo not drawn) [Example 1, 7-(3-Aminomethyl-l-pyrrolidinyl)-l-cyclopropyl-6,8-difluoro-1,4-dihydro-4-oxo-3-quinolinecarboxylic acid hydrochloride] | 0.05 | 0.05 | 0.39 | 0.39 | 0.05 | 0.05 | 0.05 | 0.05 | 0.025 | 0.05 | 0.1 | 0.05 | 0.39 | 0.025 | 0.05 | 0.05 | 0.05 | 0.78 | 0.025 | 0.05 | MIC [21]: 0.05 µg/mL; MIC [22]: 0.05 µg/mL; MIC [23]: 0.05 µg/mL; MIC [24]: 0.1 µg/mL; MIC [25]: 0.1 µg/mL; MIC [26]: 0.05 µg/mL; MIC [27]: 0.39 µg/mL; MIC [28]: 0.05 µg/mL; MIC [29]: 0.025 µg/mL; MIC [30]: 0.05 µg/mL; MIC [31]: 0.2 µg/mL
